Assay results: patent US20230150974A1 (Foghorn Therapeutics Inc., priority 2020, published 2023)
Where a name gives a salt, the structure may show the parent alone.

How the values were obtained:
HiBiT-BRM = molecular target: T1, HiBiT-BRM (Homo sapiens, UniProt P51531); experiment: HiBiT-BRM cell-based degradation assay (Nano-Glo HiBiT Lytic Detection); conditions: HeLa cells expressing HiBiT-BRM, 24 h; for DC50: read-out: BRM HiBit Degradation IC50
T1 construct: expressed in transfected cells
Procedure, shortened: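 Luminescence from HiBiT–LgBiT complementation in lysates of a stable HiBiT-BRM HeLa line measured after 24 h compound exposure. Degradation expressed as percent relative to DMSO-treated cells and cells given 2 μM of a known BRM/BRG1 degrader.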

HiBit-BRG1 = molecular target: T2, HiBit-BRG1 (Homo sapiens, UniProt P51532); experiment: HiBit-BRG1 cell-based degradation assay (Nano-Glo HiBiT Lytic Detection); conditions: HeLa cells expressing HiBit-BRG1 and LgBit, 24 h; for DC50: read-out: BRG1 HiBit Degradation IC50; for Dmax: read-out: BRG1 HiBit Degradation Maximum (%)
T2 construct: expressed in transfected cells
Procedure, shortened: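 Seed 5000 HeLa HiBit-BRG1/LgBit cells per well; treat 24 h; equilibrate 15 min at room temperature; add Nano-Glo HiBiT lytic reagent, shake 10 min, read luminescence. Percent degradation is scaled between DMSO and 2 μM reference degrader wells.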

T2 sequence (P51532 whole entry): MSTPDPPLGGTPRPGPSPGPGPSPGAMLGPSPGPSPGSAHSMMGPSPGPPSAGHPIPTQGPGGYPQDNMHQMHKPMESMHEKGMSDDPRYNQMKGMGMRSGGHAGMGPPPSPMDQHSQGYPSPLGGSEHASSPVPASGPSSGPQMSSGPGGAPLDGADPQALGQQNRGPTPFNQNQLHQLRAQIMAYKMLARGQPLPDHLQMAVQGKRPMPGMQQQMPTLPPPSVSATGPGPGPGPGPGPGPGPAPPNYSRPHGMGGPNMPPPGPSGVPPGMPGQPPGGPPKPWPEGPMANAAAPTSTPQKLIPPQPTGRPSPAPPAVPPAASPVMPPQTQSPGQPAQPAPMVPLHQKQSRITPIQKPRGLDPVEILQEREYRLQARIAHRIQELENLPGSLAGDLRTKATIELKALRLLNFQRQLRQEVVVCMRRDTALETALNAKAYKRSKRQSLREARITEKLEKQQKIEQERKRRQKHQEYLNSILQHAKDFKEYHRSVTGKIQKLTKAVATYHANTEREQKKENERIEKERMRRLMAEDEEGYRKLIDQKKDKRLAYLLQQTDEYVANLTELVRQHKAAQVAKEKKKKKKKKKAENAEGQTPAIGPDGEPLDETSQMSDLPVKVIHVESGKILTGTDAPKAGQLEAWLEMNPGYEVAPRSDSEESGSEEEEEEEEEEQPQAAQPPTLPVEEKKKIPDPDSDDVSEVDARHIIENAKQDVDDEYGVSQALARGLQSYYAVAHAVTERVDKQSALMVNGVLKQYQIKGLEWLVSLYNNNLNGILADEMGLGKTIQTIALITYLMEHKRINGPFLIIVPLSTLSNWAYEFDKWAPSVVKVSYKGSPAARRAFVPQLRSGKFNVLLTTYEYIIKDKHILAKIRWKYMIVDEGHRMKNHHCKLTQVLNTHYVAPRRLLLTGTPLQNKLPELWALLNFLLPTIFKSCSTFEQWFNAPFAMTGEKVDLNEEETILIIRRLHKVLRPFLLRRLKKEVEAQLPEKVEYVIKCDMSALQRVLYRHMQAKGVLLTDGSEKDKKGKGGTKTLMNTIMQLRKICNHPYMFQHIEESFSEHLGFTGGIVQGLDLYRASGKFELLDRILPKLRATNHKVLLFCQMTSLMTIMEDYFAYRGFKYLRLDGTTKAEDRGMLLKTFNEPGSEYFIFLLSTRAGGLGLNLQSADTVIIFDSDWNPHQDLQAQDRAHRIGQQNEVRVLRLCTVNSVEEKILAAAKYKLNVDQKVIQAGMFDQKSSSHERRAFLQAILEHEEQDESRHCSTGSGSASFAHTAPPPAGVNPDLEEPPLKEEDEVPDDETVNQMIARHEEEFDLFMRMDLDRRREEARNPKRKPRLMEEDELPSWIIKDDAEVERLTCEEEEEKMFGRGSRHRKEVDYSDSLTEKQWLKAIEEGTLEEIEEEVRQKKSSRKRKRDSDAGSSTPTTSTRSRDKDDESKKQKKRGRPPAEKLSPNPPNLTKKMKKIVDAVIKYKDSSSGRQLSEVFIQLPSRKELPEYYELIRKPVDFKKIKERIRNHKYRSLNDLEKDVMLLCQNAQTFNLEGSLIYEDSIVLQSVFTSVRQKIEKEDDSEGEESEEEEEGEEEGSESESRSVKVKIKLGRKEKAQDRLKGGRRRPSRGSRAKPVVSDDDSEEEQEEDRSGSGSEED
T1 sequence (P51531 whole entry): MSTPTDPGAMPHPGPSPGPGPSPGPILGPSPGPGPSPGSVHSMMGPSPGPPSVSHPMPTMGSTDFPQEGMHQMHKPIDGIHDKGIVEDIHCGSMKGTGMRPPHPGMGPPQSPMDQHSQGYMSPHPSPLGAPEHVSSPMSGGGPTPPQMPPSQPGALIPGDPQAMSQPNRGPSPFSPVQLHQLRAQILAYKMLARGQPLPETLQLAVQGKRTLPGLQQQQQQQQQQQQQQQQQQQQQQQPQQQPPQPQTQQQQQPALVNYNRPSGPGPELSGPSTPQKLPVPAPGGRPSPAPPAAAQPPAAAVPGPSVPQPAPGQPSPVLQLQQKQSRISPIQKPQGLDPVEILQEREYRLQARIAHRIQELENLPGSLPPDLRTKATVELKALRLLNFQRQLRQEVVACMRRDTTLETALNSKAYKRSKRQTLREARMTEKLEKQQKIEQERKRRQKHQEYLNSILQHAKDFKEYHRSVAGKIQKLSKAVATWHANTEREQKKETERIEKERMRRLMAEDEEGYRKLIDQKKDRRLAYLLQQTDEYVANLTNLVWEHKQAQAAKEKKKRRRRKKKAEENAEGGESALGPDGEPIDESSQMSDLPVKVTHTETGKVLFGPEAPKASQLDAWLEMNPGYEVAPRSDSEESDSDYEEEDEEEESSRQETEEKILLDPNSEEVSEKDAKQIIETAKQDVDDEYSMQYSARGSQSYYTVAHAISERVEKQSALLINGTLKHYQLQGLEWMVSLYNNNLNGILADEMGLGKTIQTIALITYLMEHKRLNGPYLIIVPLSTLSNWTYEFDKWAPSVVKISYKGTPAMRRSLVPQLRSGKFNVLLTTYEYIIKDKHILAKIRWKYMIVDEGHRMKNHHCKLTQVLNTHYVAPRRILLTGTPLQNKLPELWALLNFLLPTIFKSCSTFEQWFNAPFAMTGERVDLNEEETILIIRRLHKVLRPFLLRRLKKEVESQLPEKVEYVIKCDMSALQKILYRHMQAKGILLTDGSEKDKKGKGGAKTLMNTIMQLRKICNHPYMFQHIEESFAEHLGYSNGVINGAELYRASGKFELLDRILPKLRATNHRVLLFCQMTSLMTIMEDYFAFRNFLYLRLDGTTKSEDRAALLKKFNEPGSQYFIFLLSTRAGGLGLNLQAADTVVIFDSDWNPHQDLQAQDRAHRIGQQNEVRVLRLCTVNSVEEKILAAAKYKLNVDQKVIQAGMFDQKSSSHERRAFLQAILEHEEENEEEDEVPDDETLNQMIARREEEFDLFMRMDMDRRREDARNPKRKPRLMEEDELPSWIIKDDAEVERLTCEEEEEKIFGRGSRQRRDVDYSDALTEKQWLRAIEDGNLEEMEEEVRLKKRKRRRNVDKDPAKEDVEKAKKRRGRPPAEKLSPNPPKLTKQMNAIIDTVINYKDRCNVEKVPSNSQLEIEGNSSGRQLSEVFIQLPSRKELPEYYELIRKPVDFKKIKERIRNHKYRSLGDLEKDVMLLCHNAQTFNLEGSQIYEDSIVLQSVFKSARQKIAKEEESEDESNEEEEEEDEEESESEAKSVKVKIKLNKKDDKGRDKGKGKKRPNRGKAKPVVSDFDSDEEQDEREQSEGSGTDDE

DC50 (HiBiT-BRM)	DC50 (HiBit-BRG1)	Dmax (HiBit-BRG1)	Compound	BRM HiBit Degradation Maximum (%) (HiBiT-BRM)
> 1000 nM	> 1000 nM	< 50%	Cc1ncsc1-c1ccc(CNC(=O)[C@@H]2C[C@@H](O)CN2C(=O)[C@@H](NC(=O)CCN2CC3CN(C(=O)c4ccc(CCOc5cc(-c6ccccc6O)nnc5N)cc4)CC32)C(C)(C)C)cc1 (stereo partly drawn) [Compound 231, (2S,4R)-1-((2S)-2-(3-(3-(4-(2-((3-amino-6-(2-hydroxyphenyl)pyridazin-4-yl)oxy)ethyl)benzoyl)-3,6-diazabicyclo[3.2.0]heptan-6-yl)propanamido)-3,3-dimethylbutanoyl)-4-hydroxy-N-(4-(4-methylthiazol-5-yl)benzyl)pyrrolidine-2-carboxamide]	C (“C” indicates maximum degradation <50%)
> 1000 nM	> 1000 nM	< 50%	Nc1nnc(-c2ccccc2O)cc1N1CCN(CC(=O)NCCCCNc2ccc3c(c2)C(=O)N(C2CCC(=O)NC2=O)C3=O)CC1 (stereo not drawn) [Compound 103, 2-[4-[3-amino-6-(2-hydroxyphenyl)pyridazin-4-yl]piperazin-1-yl]-N-(4-[[2-(2,6-dioxopiperidin-3-yl)-1,3-dioxo-2,3-dihydro-1H-isoindol-5-yl]amino]butyl)acetamide]	C (“C” indicates maximum degradation <50%)
> 10 nM	> 1000 nM	< 50%	Cc1ncsc1-c1ccc([C@H](C)NC(=O)[C@@H]2C[C@@H](O)CN2C(=O)[C@@H](c2cc(OCCN3CCC(C4CN(C(=O)c5ccc(CCOc6cc(-c7ccccc7O)nnc6N)cc5)C4)CC3)no2)C(C)C)cc1 [Compound 207, (2S,4R)-1-[(2R)-2-[3-[2-(4-[1-[4-(2-[[3-amino-6-(2-hydroxyphenyl)pyridazin-4-yl]oxy]ethyl)benzoyl]azetidin-3-yl]piperidin-1-yl)ethoxy]-1,2-oxazol-5-yl]-3-methylbutanoyl]-4-hydroxy-N-[(1S)-1-[4-(4-methyl-1,3-thiazol-5-yl)phenyl]ethyl]pyrrolidine-2-carboxamide]	A (“A” indicates maximum degradation ≥75%)
> 10 nM	> 100 nM	> 75%	Cc1ncsc1-c1ccc([C@H](C)NC(=O)[C@@H]2C[C@@H](O)CN2C(=O)[C@@H](c2cc(OCCN3CCC(O)(C(=O)NCc4ccc(CCOc5cc(-c6ccccc6O)nnc5N)cc4)CC3)no2)C(C)C)cc1 [Compound 206, N-[[4-(2-[[3-amino-6-(2-hydroxyphenyl)pyridazin-4-yl]oxy]ethyl)phenyl]methyl]-4-hydroxy-1-[2-([5-[(2R)-1-[(2S,4R)-4-hydroxy-2-[[(1S)-1-[4-(4-methyl-1,3-thiazol-5-yl)phenyl]ethyl]carbamoyl]pyrrolidin-1-yl]-3-methyl-1-oxobutan-2-yl]-1,2-oxazol-3-yl]oxy)ethyl]piperidine-4-carboxamide]	A (“A” indicates maximum degradation ≥75%)
> 1000 nM	> 1000 nM	< 50%	Nc1nnc(-c2ccccc2O)cc1N1CCN(CCNC(=O)CCOCCOCCNc2cccc3c2C(=O)N(C2CCC(=O)NC2=O)C3=O)CC1 (stereo not drawn) [Compound 93]	C (“C” indicates maximum degradation <50%)
< 10 nM	> 100 nM	> 75%	Cc1ncsc1-c1ccc([C@H](C)NC(=O)[C@@H]2C[C@@H](O)CN2C(=O)[C@@H](c2cc(OCCNCc3ccc(CCOc4cc(-c5ccccc5O)nnc4N)cc3)no2)C(C)C)cc1 [Compound 205, (2S,4R)-1-[(2R)-2-[3-[2-([[4-(2-[[3-amino-6-(2-hydroxyphenyl)pyridazin-4-yl]oxy]ethyl)phenyl]methyl]amino)ethoxy]-1,2-oxazol-5-yl]-3-methylbutanoyl]-4-hydroxy-N-[(1S)-1-[4-(4-methyl-1,3-thiazol-5-yl)phenyl]ethyl]pyrrolidine-2-carboxamide]	A (“A” indicates maximum degradation ≥75%)
> 1000 nM	> 1000 nM	< 50%	Cc1ncsc1-c1ccc([C@H](C)NC(=O)[C@@H]2C[C@@H](O)CN2C(=O)[C@@H](NC(=O)CCN2CCN(CCCCC(=O)NCc3ccc(CCOc4cc(-c5ccccc5O)nnc4N)cc3)CC2)C(C)(C)C)cc1 [Compound 265, (2S,4R)-1-((S)-2-(3-(4-(5-((4-(2-((3-amino-6-(2-hydroxyphenyl)pyridazin-4-yl)oxy)ethyl)benzyl)amino)-5-oxopentyl)piperazin-1-yl)propanamido)-3,3-dimethylbutanoyl)-4-hydroxy-N-((S)-1-(4-(4-methylthiazol-5-yl)phenyl)ethyl)pyrrolidine-2-carboxamide]	B (“B” indicates maximum degradation ≥50%)
> 100 nM	> 1000 nM	< 50%	Cc1ncsc1-c1ccc(CNC(=O)[C@@H]2C[C@@H](O)CN2C(=O)[C@@H](NC(=O)CCCCCCCCC(=O)NCc2ccc(CCNc3cc(-c4ccccc4O)nnc3N)cc2)C(C)(C)C)cc1 [Compound 140, N′-[[4-(2-[[3-amino-6-(2-hydroxyphenyl)pyridazin-4-yl]amino]ethyl)phenyl]methyl]-N-[(2S)-1-[(2S,4R)-4-hydroxy-2-([[4-(4-methyl-1,3-thiazol-5-yl)phenyl]methyl]carbamoyl)pyrrolidin-1-yl]-3,3-dimethyl-1-oxobutan-2-yl]decanediamide]	A (“A” indicates maximum degradation ≥75%)
> 1000 nM	> 1000 nM	< 50%	CN(CCCCCOc1cccc2c1C(=O)N(C1CCC(=O)NC1=O)C2=O)Cc1ccc(CCNc2cc(-c3ccccc3O)nnc2N)cc1 (stereo not drawn) [Compound 150, 4-((5-((4-(2-((3-amino-6-(2-hydroxyphenyl)pyridazin-4-yl)amino)ethyl)benzyl)(methyl)amino)pentyl)oxy)-2-(2,6-dioxopiperidin-3-yl)isoindoline-1,3-dione, formic acid salt]	C (“C” indicates maximum degradation <50%)
> 1000 nM	> 1000 nM	< 50%	Cc1ncsc1-c1ccc(CNC(=O)[C@@H]2C[C@@H](O)CN2C(=O)[C@@H](NC(=O)COCCOCCOCCOCC(=O)NCc2ccc(CCOc3cc(-c4ccccc4O)nnc3N)cc2)C(C)(C)C)cc1 [Compound 39]	C (“C” indicates maximum degradation <50%)
> 1000 nM	> 1000 nM	< 50%	Nc1nnc(-c2ccccc2O)cc1OCCc1ccc(C(=O)NCCOCCOCCNc2cccc3c2C(=O)N(C2CCC(=O)NC2=O)C3=O)cc1 (stereo not drawn) [Compound 43, 4-(2-[[3-amino-6-(2-hydroxyphenyl)pyridazin-4-yl]oxy]ethyl)-N-[2-[2-(2-[[2-(2,6-dioxopiperidin-3-yl)-1,3-dioxoisoindol-4-yl]amino]ethoxy)ethoxy]ethyl]benzamide]	C (“C” indicates maximum degradation <50%)
> 100 nM	> 1000 nM	< 50%	Cc1ncsc1-c1ccc(CNC(=O)[C@@H]2C[C@@H](O)CN2C(=O)[C@@H](NC(=O)CCCCCCCCCCCCCCC(=O)N(C)Cc2ccc(CCOc3cc(-c4ccccc4O)nnc3N)cc2)C(C)(C)C)cc1 [Compound 223, N1-(4-(2-((3-amino-6-(2-hydroxyphenyl)pyridazin-4-yl)oxy)ethyl)benzyl)-N16-((S)-1-((2S,4R)-4-hydroxy-2-((4-(4-methylthiazol-5-yl)benzyl)carbamoyl)pyrrolidin-1-yl)-3,3-dimethyl-1-oxobutan-2-yl)-N1-methylhexadecanediamide]	A (“A” indicates maximum degradation ≥75%)
> 1000 nM	> 1000 nM	< 50%	Cc1ncsc1-c1ccc(CNC(=O)[C@@H]2C[C@@H](O)CN2C(=O)[C@@H](NC(=O)CCCCCCCNC(=O)CN2CCN(c3cc(-c4ccccc4O)nnc3N)CC2)C(C)(C)C)cc1 [Compound 94, (2S,4R)-1-((S)-2-(8-(2-(4-(3-amino-6-(2-hydroxyphenyl)pyridazin-4-yl)piperazin-1-yl)acetamido)octanamido)-3,3-dimethylbutanoyl)-4-hydroxy-N-(4-(4-methylthiazol-5-yl)benzyl)pyrrolidine-2-carboxamide]	A (“A” indicates maximum degradation ≥75%)
> 1000 nM	> 1000 nM	< 50%	Nc1nnc(-c2ccccc2O)cc1OCCc1ccc(C(=O)NCCCCNc2ccc3c(c2)C(=O)N(C2CCC(=O)NC2=O)C3=O)cc1 (stereo not drawn) [Compound 42, 4-(2-[[3-amino-6-(2-hydroxyphenyl)pyridazin-4-yl]oxy]ethyl)-N-(4-[[2-(2,6-dioxopiperidin-3-yl)-1,3-dioxoisoindol-5-yl]amino]butyl)benzamide]	C (“C” indicates maximum degradation <50%)
> 1000 nM	> 1000 nM	< 50%	Nc1nnc(-c2ccccc2O)cc1N1CCN(CCNC(=O)CCOCCOCCNc2ccc3c(c2)C(=O)N(C2CCC(=O)NC2=O)C3=O)CC1 (stereo not drawn) [Compound 91, N-(2-[4-[3-amino-6-(2-hydroxyphenyl)pyridazin-4-yl]piperazin-1-yl]ethyl)-3-[2-(2-[[2-(2,6-dioxopiperidin-3-yl)-1,3-dioxo-2,3-dihydro-1H-isoindol-5-yl]amino]ethoxy)ethoxy]propanamide]	C (“C” indicates maximum degradation <50%)
